Holding throughout (assay type): biochemical
Assay [1] deals with T1, AChE from electric eel (Electrophorus electricus) (Electrophorus electricus, UniProt O42275).
T1 construct: purchased Sigma-Aldrich GmbH (Steinheim, Germany)
The assay can be described thus: AChE-inhibition microtiter assay (Ellman, 96-well, with or without NBS oxidation). Conditions: no oxidation, 4-PL fit, n = 4. As to the method: Stock solutions (1 mg/mL) of NBS and ascorbic acid were each freshly prepared before the test and then diluted to 10 µg/mL and 100 µg/mL, respectively. The assay was performed with modifications according to Ellman’s method. OTPs, oxons, water, and methanol blanks (15 µL) were each mixed with 15 µL of NBS (10 µg/mL) in a 96-well plate. After an incubation at room temperature for 5 min, the reaction was stopped by adding 15 µL ascorbic acid (100 µg/mL). For the test setup without oxidation, OTPs, oxons, water, and methanol blanks (15 µL) were mixed with 30 µL water per well. Subsequently, 200 µL of a DTNB solution (0.15 mM), buffered in TRIS/HCl at a pH of 7.4, was added to each well of both test setups. Then, 20 µL of an AChE solution (0.5 U/mL), also buffered in TRIS/HCl at a pH of 7.4, was added. An incubation at 30 °C for 30 min without shaking followed. An ATCL solution (0.8 mM) was freshly prepared with water and 30 µL per well was added after incubation. During another incubation at room temperature for 30 min, ATCL was cleaved by AChE into thiocholine and acetic acid. Thiocholine reacts with DTNB to 2-nitro-5-thiobenzoate. The absorbance of the yellow-colored anion was photometrically measured at 405 nm (Sunrise Remote, Tecan Group AG, Männedorf, Schweiz).
Dilution series with eight concentrations of the three OTPs and related oxons (Tab. S1) were freshly prepared from stock solutions (1–10 mg/mL) in methanol. The OTPs and oxons were tested in duplicates with and without prior oxidation in two measurements as described in the “AChE-inhibition microtiter assay” section. Eight water and eight methanol blanks were tested per test setup (oxidation and no oxidation). Of these, two were tested without AChE and two without ATCL. The mean AChE activity (absorption at 405 nm, n = 4) was related to the specific inhibitor dose. The statistic program Prism (version 5.00, Graph Pad Software, San Diego, USA) was used to generate dose–response curves (4-PL fit) and to determine inhibition concentrations (ICs) for the three OTPs and related oxons. The 95% confidence intervals of the curves and the standard deviations of the mean AChE activity were also calculated. The lower boundary of the curves is fixed to 0 and the highest mean activity defines 100%.

Assay [2] concerns the target T1, AChE from electric eel (Electrophorus electricus). The assay can be described thus: HPTLC-(Ox)-AChE-I assay, spray method (AChE sprayed onto plates). Conditions: spray method; without oxidation; OTPs 100 µL, oxons 10 µL applied; peak heights, n = 3. As to the method: (§1) LiChrospher 10 × 20 cm HPTLC Silica gel 60 F254s plates (Merck, Darmstadt, Germany) with a layer thickness of 170–190 µm and spherical silica particles with a size of 7 µm were used. The HPTLC plates were immersed twice in 2-propanol for 20 min, each time followed by a drying step at room temperature for 20 min. The plates then were pre-developed with methanol, dried for 20 min at room temperature, heated at 105 °C for 20 min, and stored in a desiccator for further use. The automatic TLC Sampler 4 (ATS 4, CAMAG AG, Muttenz, Switzerland) was used for sample application. The desired sample volumes were sprayed as 6-mm-wide bands onto the HPTLC plates with an application speed of 300 nL/s. The distances of the exterior bands from the edges of the plates were 15 mm. The distance from the bottom edge was 8 mm for all bands. Methanol was used as rinsing solvent. The following further application parameters were used: filling speed 15 µL/s, pre-dosage volume 200 nL, retraction volume 200 nL, rinsing vacuum time 4 s, filling vacuum time 0 s, rinsing cycles 2, and filling cycles 1. The development of the HPTLC plates was realized by the Automated Multiple Development 2 (AMD 2, CAMAG, Muttenz, Switzerland). The OTPs, their oxons, and environmental samples were separated with an eluent mixture of cyclohexane, dichloromethane, and acetone in different proportions and with increasing migration distances (Fig. S2). After each development step, a drying step of 3 min under vacuum followed. The final migration distance was 80 mm and the whole procedure took approximately 45 min. In addition, a simpler development process was used containing only the last step of the previous described method.
(§2) The following AChE-I assay was performed in parts according to Mendoza et al., Stütz et al., and Weins and Jork. AChE was buffered in TRIS/HCl at a pH of 7.8 (2.5 U/mL). The AChE solution was either sprayed onto the HPTLC plates with a glass reagent sprayer until the plates were evenly moist (approx. 10 mL) or the plates were immersed in the AChE solution using the Chromatogram Immersion Device 3 (CID 3, CAMAG, Muttenz, Switzerland). The immersion volume, speed, time, and depth were approx. 200 mL, 2.5 cm/s, 2 s, and approx. 85 mm, respectively. Afterward, the plates were placed separately in closed plastic boxes, which contained paper towels moistened with water to gain a saturated atmosphere. An incubation at 37 °C for 5 min followed. The substrate indoxyl acetate was freshly prepared in methanol at a concentration of 20 mg/mL and 5 mL was sprayed onto the HPTLC plates with a glass reagent sprayer. During 45-min incubation time at room temperature, AChE cleaves the substrate into indoxyl and acetate. The indoxyl reacts with oxygen to the blue indigo dye. When AChE was inhibited, no indigo was produced and the spot stayed white. The TLC Scanner 3 (CAMAG, Muttenz, Switzerland) was used to scan each track on the plates at 670 nm using the fluorescence mode without optical filter. The CAMAG-embedded software Wincats (Vers. 1.4.9) was used to provide chromatograms of each track and to evaluate inhibition zones.
Several amounts of an OTP mix and an oxon mix were applied on HPTLC plates (Tab. S2) and tested as described in the “Combination of HPTLC and AChE-inhibition assay” section. Three plates were used for each dilution series. The application volume was 10 µL for investigating OTPs with following oxidation and 100 µL for testing OTPs without following oxidation. The application volume for the oxons was 10 µL. They were tested without oxidation step also in triplicates. The peak heights were used for evaluation. Only peaks that have a signal-to-noise ratio ≥ 3 were considered in the evaluation. The height next to the respective peak defines the noise.

For assay [3] the target is unchanged. Briefly: HPTLC-(Ox)-AChE-I assay, immersion method (plates immersed in AChE solution). The note with it: without oxidation, OTPs 100 µL, oxons 10 µL applied, peak heights, n = 3. As to the method:
as §1
as §2, with “After chromatographic development, 10 mL of freshly prepared NBS (100 µg/mL) was sprayed onto the HPTLC plates with a glass reagent sprayer, followed by a 5-min incubation at room temperature. The following” for “The following”
Several amounts of an OTP mix and an oxon mix were applied on HPTLC plates (Tab. S2) and tested as described in the “Combination of HPTLC and AChE-inhibition assay” section. Three plates were used for each dilution series. The application volume was 10 µL for investigating OTPs with following oxidation and 100 µL for testing OTPs without following oxidation. The application volume for the oxons was 10 µL. They were tested without oxidation step also in triplicates. The peak heights were used for evaluation. Only peaks that have a signal-to-noise ratio ≥ 3 were considered in the evaluation. The height next to the respective peak defines the noise. […]

Converted amounts (≈) assume the structure as drawn.

T1 sequence (O42275 24-633): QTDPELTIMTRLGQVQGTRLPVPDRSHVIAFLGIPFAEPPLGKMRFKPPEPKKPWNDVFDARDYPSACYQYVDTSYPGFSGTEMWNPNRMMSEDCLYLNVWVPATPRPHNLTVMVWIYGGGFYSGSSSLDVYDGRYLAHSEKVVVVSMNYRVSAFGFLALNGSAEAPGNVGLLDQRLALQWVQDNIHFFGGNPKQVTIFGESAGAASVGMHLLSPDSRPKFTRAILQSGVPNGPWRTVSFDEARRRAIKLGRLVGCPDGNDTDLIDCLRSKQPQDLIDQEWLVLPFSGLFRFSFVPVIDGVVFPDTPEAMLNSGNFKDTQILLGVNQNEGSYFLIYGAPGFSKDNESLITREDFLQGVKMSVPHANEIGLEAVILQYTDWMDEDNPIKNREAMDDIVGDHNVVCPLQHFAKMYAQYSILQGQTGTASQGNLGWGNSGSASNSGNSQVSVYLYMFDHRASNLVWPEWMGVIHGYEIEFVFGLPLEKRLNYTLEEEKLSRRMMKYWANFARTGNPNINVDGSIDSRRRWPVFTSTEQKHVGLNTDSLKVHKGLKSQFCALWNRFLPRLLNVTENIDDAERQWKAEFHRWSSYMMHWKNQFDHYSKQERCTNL

`CCOP(=O)(OCC)Oc1ccc([N+](=O)[O-])cc1` [Paraoxon, paraoxon]: the IC80 in assay [1] (read-out: IC20 (inhibition concentration for 20% AChE activity), best fit) was determined as 0.071 µg/mL (≈ 0.258 µM). The IC20 in assay [1] (read-out: IC80 (inhibition concentration for 80% AChE activity), best fit) amounted to 0.016 µg/mL (≈ 0.0581 µM). Moreover, in assay [2], the “IC10 (10% AChE inhibition), best fit” value is recorded as 0.79 ng/spot; the “IC20 (20% AChE inhibition), best fit” value was 1.2 ng/spot; the “IC80 (80% AChE inhibition), best fit” value worked out at 5.9 ng/spot. Further, in assay [3], the “IC10 (10% AChE inhibition), best fit” value was 0.60 ng/spot; the “IC20 (20% AChE inhibition), best fit” value was 0.99 ng/spot; the “IC80 (80% AChE inhibition), best fit” value is 5.4 ng/spot.

The record behind these values is article PMC9124651, “High-performance thin-layer chromatography in combination with an acetylcholinesterase-inhibition bioassay with pre-oxidation of organothiophosphates to determine neurotoxic effects in storm, waste, and surface water” (Analytical and Bioanalytical Chemistry, 2022).
